# Measurements from PubChem BioAssay AID192 (DTP/NCI, 2004).
# “And” between values parts separate entries of the source, which are not always exact repeats. Equal entries are not always repeated. Inconclusive results and toxic doses are left out.
# Test system: BDF1 mice, B16 melanoma ip, median survival T/C
# Test: NCI In Vivo Anticancer Drug Screen. Data for tumor model B16 Melanoma (intraperitoneal) in B6D2F1 (BDF1) mice
# Settings: endpoint: median survival time, higher = longer survival
# Method in brief: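 Vehicle-treated animals serve as the reference (C); treated animals (T) are scored for survival or tumor size after tumor transplantation.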
# [1] = dose: 50.0 mg/kg/injection, schedule: Q01DX009 (ip), vehicle: Klucel (hydroxypropylcellulose) (HPC)
# [2] = dose: 100.0 mg/kg/injection, schedule: Q01DX009 (ip), vehicle: Klucel (hydroxypropylcellulose) (HPC)
# [3] = dose: 200.0 mg/kg/injection, schedule: Q01DX009 (ip), vehicle: Klucel (hydroxypropylcellulose) (HPC)
structure (smiles),measurement,setting,value
CC(C)[C@](O)(C(=O)OCC1=CC[N+]2([O-])CC[C@@H](O)[C@@H]12)[C@H](C)O (stereo partly drawn),T/C,"dose: 12.5 mg/kg/injection, schedule: Q01DX009 (ip), vehicle: water",105 % of control
same,T/C,"dose: 16.0 mg/kg/injection, schedule: Q03HX008 (ip), vehicle: water",93 % of control
same,T/C,"dose: 16.0 mg/kg/injection, schedule: Q03HX016 (ip), vehicle: water",96 % of control
same,T/C,"dose: 16.0 mg/kg/injection, schedule: Q03HX024 (ip), vehicle: water",96 % of control
same,T/C,"dose: 25.0 mg/kg/injection, schedule: Q01DX009 (ip), vehicle: water",117 % of control
same,T/C,"dose: 32.0 mg/kg/injection, schedule: Q03HX008 (ip), vehicle: water",99 % of control
same,T/C,"dose: 32.0 mg/kg/injection, schedule: Q03HX016 (ip), vehicle: water",94 % of control
same,T/C,"dose: 32.0 mg/kg/injection, schedule: Q03HX024 (ip), vehicle: water",100 % of control
same,T/C,"dose: 64.0 mg/kg/injection, schedule: Q01DX009 (ip), vehicle: saline",113 % of control
same,T/C,"dose: 64.0 mg/kg/injection, schedule: Q01DX009 (ip), vehicle: water",103 % of control
same,T/C,"dose: 64.0 mg/kg/injection, schedule: Q03HX008 (ip), vehicle: water",108 % of control
same,T/C,"dose: 64.0 mg/kg/injection, schedule: Q03HX016 (ip), vehicle: water",108 % of control
same,T/C,"dose: 64.0 mg/kg/injection, schedule: Q03HX024 (ip), vehicle: water",120 % of control
same,T/C,"dose: 100.0 mg/kg/injection, schedule: Q01DX009 (ip), vehicle: saline sonified",104 % of control
same,T/C,"dose: 128.0 mg/kg/injection, schedule: Q01DX001 (ip), vehicle: water",103 % of control
same,T/C,"dose: 128.0 mg/kg/injection, schedule: Q01DX009 (ip), vehicle: saline",113 % of control
same,T/C,"dose: 128.0 mg/kg/injection, schedule: Q01DX009 (ip), vehicle: water",119 % of control
same,T/C,"dose: 128.0 mg/kg/injection, schedule: Q01DX009 (oral), vehicle: water",95 % of control and 101 % of control
same,T/C,"dose: 128.0 mg/kg/injection, schedule: Q03HX008 (ip), vehicle: water",123 % of control
same,T/C,"dose: 128.0 mg/kg/injection, schedule: Q04DX003 (ip), vehicle: water",102 % of control
same,T/C,"dose: 128.0 mg/kg/injection, schedule: Q08DX002 (ip), vehicle: water",105 % of control
same,T/C,"dose: 228.0 mg/kg/injection, schedule: Q01DX009 (ip), vehicle: saline",119 % of control
same,T/C,"dose: 256.0 mg/kg/injection, schedule: Q01DX009 (oral), vehicle: water",93 % of control and 96 % of control
same,T/C,"dose: 256.0 mg/kg/injection, schedule: Q03HX016 (ip), vehicle: water",150 % of control
same,T/C,"dose: 256.0 mg/kg/injection, schedule: Q04DX003 (ip), vehicle: water",106 % of control
same,T/C,"dose: 256.0 mg/kg/injection, schedule: Q08DX002 (ip), vehicle: water",118 % of control
same,T/C,"dose: 512.0 mg/kg/injection, schedule: Q01DX001 (ip), vehicle: water",113 % of control
same,T/C,"dose: 512.0 mg/kg/injection, schedule: Q01DX009 (ip), vehicle: water",150 % of control and 182 % of control
same,T/C,"dose: 512.0 mg/kg/injection, schedule: Q01DX009 (oral), vehicle: water",94 % of control and 95 % of control
same,T/C,"dose: 512.0 mg/kg/injection, schedule: Q08DX002 (ip), vehicle: water",123 % of control
same,T/C,"dose: 600.0 mg/kg/injection, schedule: Q01DX009 (ip), vehicle: water",163 % of control
same,T/C,"dose: 768.0 mg/kg/injection, schedule: Q01DX009 (ip), vehicle: saline",100 % of control
same,T/C,"dose: 800.0 mg/kg/injection, schedule: Q01DX009 (ip), vehicle: saline sonified",150 % of control
same,T/C,"dose: 1024.0 mg/kg/injection, schedule: Q01DX009 (oral), vehicle: water",97 % of control and 99 % of control
same,T/C,"dose: 2048.0 mg/kg/injection, schedule: Q08DX002 (ip), vehicle: water",169 % of control
O=C(O)c1ccc2c([N+](=O)[O-])cccc2n1,T/C,[1],112 % of control
same,T/C,[2],112 % of control
O=C(O)CC(=O)O.[NH-]C1CCCCC1[NH-].[Pt+2] (stereo not drawn),T/C,"dose: 10.0 mg/kg/injection, schedule: Q01DX009 (ip), vehicle: dextrose",150 % of control
same,T/C,"dose: 12.5 mg/kg/injection, schedule: Q01DX009 (ip), vehicle: dextrose",196 % of control
same,T/C,"dose: 24.0 mg/kg/injection, schedule: Q01DX009 (ip), vehicle: other",150 % of control
same,T/C,"dose: 25.0 mg/kg/injection, schedule: Q01DX009 (ip), vehicle: dextrose",163 % of control
OCCN1CCC2(CC1)SSC1(CCN(CCO)CC1)S2,T/C,"dose: 100.0 mg/kg/injection, schedule: Q01DX009 (ip), vehicle: saline",117 % of control
same,T/C,"dose: 200.0 mg/kg/injection, schedule: Q01DX009 (ip), vehicle: saline",112 % of control
CO[C@@]12[C@H](COC(N)=O)C3=C(C(=O)C(C)=C(N)C3=O)N1C[C@@H]1N[C@@H]12,T/C,"dose: 0.06 mg/kg/injection, schedule: Q01DX009 (ip), vehicle: Klucel (hydroxypropylcellulose) (HPC)",113 % of control
same,T/C,"dose: 0.1 mg/kg/injection, schedule: Q04DX003 (ip), vehicle: saline",99 % of control
same,T/C,"dose: 0.13 mg/kg/injection, schedule: Q01DX001 (ip), vehicle: clinical formulation",105 % of control
same,T/C,"dose: 0.13 mg/kg/injection, schedule: Q01DX009 (ip), vehicle: Klucel (hydroxypropylcellulose) (HPC)",114 % of control
same,T/C,"dose: 0.13 mg/kg/injection, schedule: Q01DX009 (ip), vehicle: saline",117 % of control
same,T/C,"dose: 0.2 mg/kg/injection, schedule: Q04DX003 (ip), vehicle: saline",113 % of control
same,T/C,"dose: 0.22 mg/kg/injection, schedule: Q01DX009 (ip), vehicle: saline",103 % of control
same,T/C,"dose: 0.25 mg/kg/injection, schedule: Q01DX001 (ip), vehicle: clinical formulation",114 % of control
same,T/C,"dose: 0.25 mg/kg/injection, schedule: Q01DX009 (ip), vehicle: Klucel (hydroxypropylcellulose) (HPC)",110 % of control
same,T/C,"dose: 0.25 mg/kg/injection, schedule: Q01DX009 (ip), vehicle: saline",103 % of control
same,T/C,"dose: 0.36 mg/kg/injection, schedule: Q01DX009 (ip), vehicle: saline",117 % of control
same,T/C,"dose: 0.5 mg/kg/injection, schedule: Q01DX001 (ip), vehicle: clinical formulation",123 % of control
same,T/C,"dose: 0.5 mg/kg/injection, schedule: Q01DX009 (ip), vehicle: Klucel (hydroxypropylcellulose) (HPC)",113 % of control
same,T/C,"dose: 0.5 mg/kg/injection, schedule: Q01DX009 (ip), vehicle: saline",159 % of control
same,T/C,"dose: 0.54 mg/kg/injection, schedule: Q01DX009 (ip), vehicle: saline",154 % of control and 217 % of control
same,T/C,"dose: 0.54 mg/kg/injection, schedule: Q01DX010 (ip), vehicle: saline",114 % of control
same,T/C,"dose: 0.6 mg/kg/injection, schedule: Q01DX009 (ip), vehicle: saline",151 % of control
same,T/C,"dose: 0.9 mg/kg/injection, schedule: Q01DX010 (ip), vehicle: saline",107 % of control
same,T/C,"dose: 1.0 mg/kg/injection, schedule: Q01DX007 (ip), vehicle: saline",152 % of control
same,T/C,"dose: 1.0 mg/kg/injection, schedule: Q01DX009 (ip), vehicle: Klucel (hydroxypropylcellulose) (HPC)",181 % of control and 189 % of control
same,T/C,"dose: 1.0 mg/kg/injection, schedule: Q01DX009 (ip), vehicle: saline sonified",169 % of control
same,T/C,"dose: 1.0 mg/kg/injection, schedule: Q04DX003 (ip), vehicle: clinical formulation",159 % of control
same,T/C,"dose: 1.5 mg/kg/injection, schedule: Q01DX010 (ip), vehicle: saline",101 % of control
same,T/C,"dose: 1.5 mg/kg/injection, schedule: Q04DX003 (ip), vehicle: clinical formulation",151 % of control
same,T/C,"dose: 1.5 mg/kg/injection, schedule: Q04DX003 (ip), vehicle: saline",164 % of control
same,T/C,"dose: 1.6 mg/kg/injection, schedule: Q04DX003 (ip), vehicle: saline",172 % of control
same,T/C,"dose: 1.67 mg/kg/injection, schedule: Q01DX009 (ip), vehicle: saline",151 % of control
same,T/C,"dose: 2.0 mg/kg/injection, schedule: Q01DX001 (ip), vehicle: clinical formulation",153 % of control
same,T/C,"dose: 2.0 mg/kg/injection, schedule: Q04DX003 (ip), vehicle: clinical formulation",236 % of control
same,T/C,"dose: 2.5 mg/kg/injection, schedule: Q01DX009 (ip), vehicle: saline",34 % of control and 57 % of control
same,T/C,"dose: 2.5 mg/kg/injection, schedule: Q01DX010 (ip), vehicle: saline",105 % of control
same,T/C,"dose: 3.0 mg/kg/injection, schedule: Q04DX003 (ip), vehicle: clinical formulation",260 % of control
same,T/C,"dose: 3.0 mg/kg/injection, schedule: Q04DX003 (ip), vehicle: saline",193 % of control
same,T/C,"dose: 3.2 mg/kg/injection, schedule: Q04DX003 (ip), vehicle: saline",231 % of control
same,T/C,"dose: 4.0 mg/kg/injection, schedule: Q01DX007 (ip), vehicle: saline",57 % of control
Cc1ccc(Nc2nnc(N=Nc3ccccc3)s2)cc1C,T/C,[1],86 % of control
same,T/C,[2],91 % of control
same,T/C,[3],91 % of control
CC(CC=O)CCCC(C)(C)O (stereo not drawn),T/C,[2],101 % of control
same,T/C,[3],97 % of control
